The results in this text go back to patent US20180057462A1, “Substituted 2-difluoromethyl-nicotin(thio)carboxanilide derivatives and their use as fungicides” (BAYER CROPSCIENCE AKTIENGESELLSCHAFT, priority 2015, published 2018).

The nature of the first series: LogP by HPLC on reversed phase columns (EEC directive 79/831 Annex V.A8), method [a]. It is filed as physicochemical. The following applies: LC-UV, acidic range, 0.1% formic acid in water and acetonitrile as eluent (linear gradient 10% to 95% acetonitrile).
On to `Cc1ccc(-c2cccc(NC(=O)c3cccnc3C(F)F)c2C)s1` [Example 111], for which the “LogP[a]” value was 3.19.

For the compound `Cc1nc(C)c(-c2cccc(NC(=O)c3cccnc3C(F)F)c2C)s1` [Example 112], the “LogP[a]” value stood at 1.98.

Consider `Cc1c(NC(=O)c2cccnc2C(F)F)cccc1-c1cnn(C(C)C)c1` [Example 113], for which the “LogP[a]” value is on record as 2.17.

Regarding `Cc1c(NC(=O)c2cccnc2C(F)F)cccc1-c1csc(C(C)C)n1` [Example 114], the “LogP[a]” value was 2.94.

Consider `Cc1c(NC(=O)c2cccnc2C(F)F)cccc1OC(C)c1ccc(Cl)cc1Cl` (centres unmarked) [Example 115], for which the “LogP[a]” value is given as 4.41.

`Cc1c(NC(=O)c2cccnc2C(F)F)cccc1C1CCCCC1(C)C` (centres unmarked) [Example 116]: the “LogP[a]” value is reported as 4.31.

Turning to `Cc1c(NC(=O)c2cccnc2C(F)F)cccc1OC(C)(C)C(C)C` [Example 117], the “LogP[a]” value is listed as 3.61.

On to `CCOc1cccc(NC(=O)c2cccnc2C(F)F)c1C` [Example 118], for which the “LogP[a]” value is 2.34.

Consider `Cc1c(NC(=O)c2cccnc2C(F)F)cccc1OCC(F)(F)F` [Example 119], for which the “LogP[a]” value amounted to 2.55.

On to `Cc1c(NC(=O)c2cccnc2C(F)F)cccc1OCCC(F)(F)F` [Example 120], for which the “LogP[a]” value came to 2.68.

For `Cc1c(NC(=O)c2cccnc2C(F)F)cccc1C1CCCC1` [Example 121], the “LogP[a]” value came to 3.25.

Regarding `Cc1c(NC(=O)c2cccnc2C(F)F)cccc1C1CC1` [Example 122], the “LogP[a]” value came to 2.43.

Regarding `Cc1c(NC(=O)c2c(C(F)F)ccnc2C(F)F)cccc1OC1CCCC1` [Example 123], the “LogP[a]” value stood at 3.70.

Staying with this series, now noted: reversed phase HPLC column; LC-UV, acidic range, 0.1% formic acid in water and acetonitrile as eluent (linear gradient 10% to 95% acetonitrile).
On to `Cc1c(NC(=O)c2cccnc2C(F)F)cccc1-c1cncc(C(F)(F)F)c1` [Example 110, 2-(difluoromethyl)-N-{2-methyl-3-[5-(trifluoromethyl)pyridin-3-yl]phenyl}nicotinamide], for which the chromatographic logP stood at 2.6.
